The values that follow come from patent US10399988B2, “4-aminopyrazolo[3,4-d]pyrimidinylazabicyclo derivatives and pharmaceutical composition comprising the same” (Daewoong Pharmaceutical Co., Ltd., priority 2016, dated 2019).

Molecules are shown by their SMILES.

Chain of BTK (Q06187 whole entry): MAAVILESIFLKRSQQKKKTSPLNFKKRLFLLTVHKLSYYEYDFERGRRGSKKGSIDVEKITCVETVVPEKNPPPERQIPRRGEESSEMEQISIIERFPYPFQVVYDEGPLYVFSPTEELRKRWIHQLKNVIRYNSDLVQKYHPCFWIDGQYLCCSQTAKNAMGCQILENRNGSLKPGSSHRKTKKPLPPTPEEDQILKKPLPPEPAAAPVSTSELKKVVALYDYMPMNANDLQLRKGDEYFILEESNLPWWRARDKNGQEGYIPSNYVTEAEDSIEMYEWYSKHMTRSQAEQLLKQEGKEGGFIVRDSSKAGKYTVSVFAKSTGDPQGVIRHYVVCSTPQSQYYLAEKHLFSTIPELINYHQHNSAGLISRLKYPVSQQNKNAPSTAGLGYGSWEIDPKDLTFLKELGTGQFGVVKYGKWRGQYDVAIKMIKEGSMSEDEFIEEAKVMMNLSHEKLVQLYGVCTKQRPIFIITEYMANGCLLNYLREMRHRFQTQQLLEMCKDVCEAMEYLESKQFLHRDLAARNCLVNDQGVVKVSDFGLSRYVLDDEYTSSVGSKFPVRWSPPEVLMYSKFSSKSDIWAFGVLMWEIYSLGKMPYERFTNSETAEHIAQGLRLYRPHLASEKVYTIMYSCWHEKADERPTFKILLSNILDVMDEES

For one test, the target named is T1, ITK (Homo sapiens, UniProt Q08881).
T1 construct: purchased Promega Corporation
T1 sequence (Q08881 1-620): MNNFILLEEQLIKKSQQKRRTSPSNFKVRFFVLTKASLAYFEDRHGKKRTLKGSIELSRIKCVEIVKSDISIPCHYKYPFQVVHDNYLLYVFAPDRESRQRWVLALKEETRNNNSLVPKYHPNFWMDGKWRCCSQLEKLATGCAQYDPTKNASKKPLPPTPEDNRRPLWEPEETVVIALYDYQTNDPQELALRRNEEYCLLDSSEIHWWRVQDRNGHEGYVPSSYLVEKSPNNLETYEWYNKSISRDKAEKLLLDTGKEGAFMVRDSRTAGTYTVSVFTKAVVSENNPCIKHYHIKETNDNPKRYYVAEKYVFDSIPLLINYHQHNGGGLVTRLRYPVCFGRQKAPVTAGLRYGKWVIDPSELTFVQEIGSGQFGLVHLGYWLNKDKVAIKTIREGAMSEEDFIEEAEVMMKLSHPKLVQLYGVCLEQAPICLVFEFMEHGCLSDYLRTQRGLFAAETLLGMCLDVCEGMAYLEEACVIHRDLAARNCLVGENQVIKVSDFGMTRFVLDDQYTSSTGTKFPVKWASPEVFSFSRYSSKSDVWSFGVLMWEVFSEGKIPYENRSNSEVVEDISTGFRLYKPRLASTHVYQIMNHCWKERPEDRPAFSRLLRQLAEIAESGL
As to the kind of experiment: Inhibitory activity against ITK (ADP-Glo + ITK Kinase enzyme system kit); selectivity BTK vs. ITK. In kind it is biochemical. The note with it: ITK enzyme 0.4 ng/uL, ATP 25 uM, luminescence, duplicate. For orientation: ADP-Glo first removes unused ATP, then detects ADP through luciferase.
A word on the IC50: it is the midpoint of a concentration-inhibition curve. Take `C=CC(=O)N1CC2CC1C(n1nc(-c3ccc(C(=O)Nc4cccc(Cl)c4)cc3)c3c(N)ncnc31)C2` (centres unmarked) [Ex. 48, 4-(1-(2-acryloyl-2-azabicyclo[2.2.1]heptan-6-yl)-4-amino-1H-pyrazolo[3,4-d]pyrimidin-3-yl)-N-(3-chlorophenyl)benzamide]: the IC50 is 0.401 µM.

As for `C#CC(=O)N1CC2CC1C(n1nc(-c3ccc(C(=O)Nc4ccccc4)cc3)c3c(N)ncnc31)C2` (centres unmarked) [Ex. 17, 4-(4-amino-1-(2-propioloyl-2-azabicyclo[2.2.1]heptan-6-yl)-1H-pyrazolo[3,4-d]pyrimidin-3-yl)-N-phenylbenzamide], the IC50 is over 1 µM.

The test is the same for the next values; noted with them: selectivity for the inhibitory activity of BTK vs. ITK, Equation 1.
As to `C=CC(=O)N1CC2CC1C(n1nc(-c3ccc(C(=O)Nc4cccc(Cl)c4)cc3)c3c(N)ncnc31)C2` (centres unmarked) [Ex. 48, 4-(1-(2-acryloyl-2-azabicyclo[2.2.1]heptan-6-yl)-4-amino-1H-pyrazolo[3,4-d]pyrimidin-3-yl)-N-(3-chlorophenyl)benzamide], the “Selectivity (based on IC50)” value came to 85.3.

With `C#CC(=O)N1CC2CC1C(n1nc(-c3ccc(C(=O)Nc4ccccc4)cc3)c3c(N)ncnc31)C2` (centres unmarked) [Ex. 17, 4-(4-amino-1-(2-propioloyl-2-azabicyclo[2.2.1]heptan-6-yl)-1H-pyrazolo[3,4-d]pyrimidin-3-yl)-N-phenylbenzamide], the “Selectivity (based on IC50)” value is listed as over 212.8.

The next test addresses BTK (Homo sapiens, UniProt Q06187). The test can be described thus: Inhibitory activity against BTK (ADP-Glo + BTK Kinase enzyme system kit).
Details: not given
For the molecule `C=CC(=O)N1CC2CC1C(n1nc(-c3ccc(C(=O)Nc4cccc(Cl)c4)cc3)c3c(N)ncnc31)C2` (centres unmarked) [Ex. 48, 4-(1-(2-acryloyl-2-azabicyclo[2.2.1]heptan-6-yl)-4-amino-1H-pyrazolo[3,4-d]pyrimidin-3-yl)-N-(3-chlorophenyl)benzamide], the IC50 turned out to be 0.0047 µM.

On to `C#CC(=O)N1CC2CC1C(n1nc(-c3ccc(C(=O)Nc4ccccc4)cc3)c3c(N)ncnc31)C2` (centres unmarked) [Ex. 17, 4-(4-amino-1-(2-propioloyl-2-azabicyclo[2.2.1]heptan-6-yl)-1H-pyrazolo[3,4-d]pyrimidin-3-yl)-N-phenylbenzamide], for which the IC50 was determined as 0.0047 µM.

For `C=CC(=O)N1CC2CC1C(n1nc(-c3ccc(C(=O)Nc4cc(C(F)(F)F)ccn4)cc3)c3c(N)ncnc31)C2` (centres unmarked) [Ex. 29, 4-(1-(2-acryloyl-2-azabicyclo[2.2.1]heptan-6-yl)-4-amino-1H-pyrazolo[3,4-d]pyrimidin-3-yl)-N-(4-(trifluoromethyl)pyridin-2-yl)benzamide], the IC50 is 0.0169 µM.

As for `Nc1ncnc2c1c(-c1ccc(Oc3ccccc3)cc1)nn2C1CC2CC1N(C(=O)/C=C/CN1CCOCC1)C2` (centres unmarked) [Ex. 58, (E)-1-(6-(4-amino-3-(4-phenoxyphenyl)-1H-pyrazolo[3,4-d]pyrimidin-1-yl)-2-azabicyclo[2.2.1]heptan-2-yl)-4-morpholinobut-2-en-1-one], the IC50 worked out at 0.0053 µM.

Turning to `C#CC(=O)N1CC2CC1C(n1nc(-c3ccc(-c4ccccc4)cc3)c3c(N)ncnc31)C2` (centres unmarked) [Ex. 30, 1-(6-(4-amino-3-(biphenyl-4-yl)-1H-pyrazolo[3,4-d]pyrimidin-1-yl)-2-azabicyclo[2.2.1]heptan-2-yl)prop-2-yn-1-one], the IC50 is over 1 µM.

As to `C=CC(=O)N1C[C@@H]2C[C@H]1[C@@H](n1nc(-c3ccc(C(=O)Nc4cc(F)ccn4)cc3F)c3c(N)ncnc31)C2` [Ex. 73, 4-(1-((1S,4R,6S)-2-acryloyl-2-azabicyclo[2.2.1]heptan-6-yl)-4-amino-1H-pyrazolo[3,4-d]pyrimidin-3-yl)-3-fluoro-N-(4-fluoropyridin-2-yl)benzamide], the IC50 worked out at 0.0011 µM.

Consider `C=CC(=O)N1CC2CC1C(n1nc(-c3ccc(Oc4cccc(C)c4)cc3)c3c(N)ncnc31)C2` (centres unmarked) [Ex. 40, 1-(6-(4-amino-3-(4-(m-tolyloxy)phenyl)-1H-pyrazolo[3,4-d]pyrimidin-1-yl)-2-azabicyclo[2.2.1]heptan-2-yl)prop-2-en-1-one], for which the IC50 was determined as 0.0055 µM.

Turning to `C#CC(=O)N1CC2CC1C(n1nc(-c3cccc(C(=O)Nc4ccc(C(C)C)c(C)c4)c3)c3c(N)ncnc31)C2` (centres unmarked) [Ex. 9, 3-(4-amino-1-(2-propioloyl-2-azabicyclo[2.2.1]heptan-6-yl)-1H-pyrazolo[3,4-d]pyrimidin-3-yl)-N-(4-isopropyl-3-methylphenyl)benzamide], the IC50 was 0.0538 µM.

Turning to `CN1CCN(C/C=C/C(=O)N2CC3CC2C(n2nc(-c4ccc(Oc5ccccc5)cc4)c4c(N)ncnc42)C3)CC1` (centres unmarked) [Ex. 62, (E)-1-(6-(4-amino-3-(4-phenoxyphenyl)-1H-pyrazolo[3,4-d]pyrimidin-1-yl)-2-azabicyclo[2.2.1]heptan-2-yl)-4-(4-methylpiperazin-1-yl)but-2-en-1-one], the IC50 worked out at 0.0058 µM.

Turning to `C=CC(=O)N1CC2CC1C(n1nc(-c3ccc(NC(=O)c4ccccc4)cc3)c3c(N)ncnc31)C2` (centres unmarked) [Ex. 37, N-(4-(1-(2-acryloyl-2-azabicyclo[2.2.1]heptan-6-yl)-4-amino-1H-pyrazolo[3,4-d]pyrimidin-3-yl)phenyl)benzamide], the IC50 was 0.0051 µM.

As to `C=CC(=O)N1CC2CC1C(n1nc(-c3cccc(C(=O)Nc4ccc(C(C)C)c(C)c4)c3)c3c(N)ncnc31)C2` (centres unmarked) [Ex. 10, 3-(1-(2-acryloyl-2-azabicyclo[2.2.1]heptan-6-yl)-4-amino-1H-pyrazolo[3,4-d]pyrimidin-3-yl)-N-(4-isopropyl-3-methylphenyl)benzamide], the IC50 was found to be 0.088 µM.

With `C=CC(=O)N1CC2CC1C(n1nc(-c3ccc(C(=O)Nc4cccc(CC)c4)cc3)c3c(N)ncnc31)C2` (centres unmarked) [Ex. 46, 4-(1-(2-acryloyl-2-azabicyclo[2.2.1]heptan-6-yl)-4-amino-1H-pyrazolo[3,4-d]pyrimidin-3-yl)-N-(3-ethylphenyl)benzamide], the 50% inhibitory concentration (IC50) came to 0.072 µM.

In the case of `C=CC(=O)N1CC2CC1C(n1nc(-c3ccc(C(=O)Nc4cccc(C(F)(F)F)n4)cc3)c3c(N)ncnc31)C2` (centres unmarked) [Ex. 70, 4-(1-(2-acryloyl-2-azabicyclo[2.2.1]heptan-6-yl)-4-amino-1H-pyrazolo[3,4-d]pyrimidin-3-yl)-N-(6-(trifluoromethyl)pyridin-2-yl)benzamide], the IC50 amounted to 0.0063 µM.

Regarding `C=CC(=O)N1CC2CC1C(n1nc(-c3ccc(C(=O)Nc4ccccc4)cc3F)c3c(N)ncnc31)C2` (centres unmarked) [Ex. 52, 4-(1-(2-acryloyl-2-azabicyclo[2.2.1]heptan-6-yl)-4-amino-1H-pyrazolo[3,4-d]pyrimidin-3-yl)-3-fluoro-N-phenylbenzamide], the IC50 stood at 0.0051 µM.

On to `C=CC(=O)N1CC2CC1C(n1nc(-c3ccc(NC(=O)Nc4ccccc4)cc3)c3c(N)ncnc31)C2` (centres unmarked) [Ex. 39, 1-(4-(1-(2-acryloyl-2-azabicyclo[2.2.1]heptan-6-yl)-4-amino-1H-pyrazolo[3,4-d]pyrimidin-3-yl)phenyl)-3-phenylurea], for which the IC50 came out at 0.0152 µM.

On to `C#CC(=O)N1CC2CC1C(n1nc(-c3ccc(C(=O)Nc4cc(C(F)(F)F)ccn4)cc3)c3c(N)ncnc31)C2` (centres unmarked) [Ex. 6, 4-(4-amino-1-(2-propioloyl-2-azabicyclo[2.2.1]heptan-6-yl)-1H-pyrazolo[3,4-d]pyrimidin-3-yl)-N-(4-(trifluoromethyl)pyridin-2-yl)benzamide], for which the IC50 was found to be 0.0227 µM.

On to `CN1CCN(C/C=C/C(=O)N2CC3CC2C(n2nc(-c4ccc(C(=O)Nc5ccccn5)cc4)c4c(N)ncnc42)C3)CC1` (centres unmarked) [Ex. 61, (E)-4-(4-amino-1-(2-(4-(4-methylpiperazin-1-yl)but-2-enoyl)-2-azabicyclo[2.2.1]heptan-6-yl)-1H-pyrazolo[3,4-d]pyrimidin-3-yl)-N-(pyridin-2-yl)benzamide], for which the IC50 amounted to 0.136 µM.

Take `C=CC(=O)N1CC2CC1C(n1nc(-c3cccc(C(=O)Nc4ccc(C(F)(F)F)nc4)c3)c3c(N)ncnc31)C2` (centres unmarked) [Ex. 26, 3-(1-(2-acryloyl-2-azabicyclo[2.2.1]heptan-6-yl)-4-amino-1H-pyrazolo[3,4-d]pyrimidin-3-yl)-N-(6-(trifluoromethyl)pyridin-3-yl)benzamide]: the IC50 stood at 0.295 µM.

Consider `C#CC(=O)N1CC2CC1C(n1nc(-c3cccc(C(=O)Nc4ccc(C(C)C)cc4)c3)c3c(N)ncnc31)C2` (centres unmarked) [Ex. 7, 3-(4-amino-1-(2-propioloyl-2-azabicyclo[2.2.1]heptan-6-yl)-1H-pyrazolo[3,4-d]pyrimidin-3-yl)-N-(4-isopropylphenyl)benzamide], for which the IC50 was 0.0316 µM.

For the molecule `CN(C)C/C=C/C(=O)N1CC2CC1C(n1nc(-c3ccc(C(=O)Nc4ccccn4)cc3)c3c(N)ncnc31)C2` (centres unmarked) [Ex. 60, (E)-4-(4-amino-1-(2-(4-(dimethylamino)but-2-enoyl)-2-azabicyclo[2.2.1]heptan-6-yl)-1H-pyrazolo[3,4-d]pyrimidin-3-yl)-N-(pyridin-2-yl)benzamide], the IC50 is 0.0364 µM.

Consider `C=CC(=O)N1CC2CC1C(n1nc(-c3ccc(C(=O)Nc4ccccc4)cc3)c3c(N)ncnc31)C2` (centres unmarked) [Ex. 19, 4-(1-(2-acryloyl-2-azabicyclo[2.2.1]heptan-6-yl)-4-amino-1H-pyrazolo[3,4-d]pyrimidin-3-yl)-N-phenylbenzamide], for which the IC50 is 0.0108 µM.

As to `CC#CC(=O)N1CC2CC1C(n1nc(-c3cccc(C(=O)Nc4ccccc4)c3)c3c(N)ncnc31)C2` (centres unmarked) [Ex. 22, 3-(4-amino-1-(2-but-2-ynoyl-2-azabicyclo[2.2.1]heptan-6-yl)-1H-pyrazolo[3,4-d]pyrimidin-3-yl)-N-phenylbenzamide], the IC50 is over 1 µM.

Regarding `C=CC(=O)N1C[C@@H]2C[C@H]1[C@@H](n1nc(-c3ccc(C(=O)Nc4ncccc4C(F)(F)F)cc3)c3c(N)ncnc31)C2` [Ex. 78, 4-(1-((1S,4R,6S)-2-acryloyl-2-azabicyclo[2.2.1]heptan-6-yl)-4-amino-1H-pyrazolo[3,4-d]pyrimidin-3-yl)-N-(3-(trifluoromethyl)pyridin-2-yl)benzamide], the IC50 was 0.0052 µM.

Take `C=CC(=O)N1CC2CC1C(n1nc(-c3ccc(C(=O)Nc4ccccc4N(C)C)cc3)c3c(N)ncnc31)C2` (centres unmarked) [Ex. 55, 4-(1-(2-acryloyl-2-azabicyclo[2.2.1]heptan-6-yl)-4-amino-1H-pyrazolo[3,4-d]pyrimidin-3-yl)-N-(2-(dimethylamino)phenyl)benzamide]: the IC50 came to 0.0085 µM.

For `C#CC(=O)N1CC2CC1CC2n1nc(-c2ccc(Oc3ccccc3)cc2)c2c(N)ncnc21` (centres unmarked) [Ex. 11, 1-(5-(4-amino-3-(4-phenoxyphenyl)-1H-pyrazolo[3,4-d]pyrimidin-1-yl)-2-azabicyclo[2.2.1]heptan-2-yl)prop-2-yn-1-one], the IC50 is 0.0028 µM.
